Test results: ChEMBL document CHEMBL3988181, “GlaxoSmithKline Published Kinase Inhibitor Set 2 Onchocerca lienalis Screening Data”
Where “and” joins values, the source holds several entries; their conditions need not be identical. Equal values may be shown once.

Assay: GSK PKIS2: Screen against O. lienalis microfilariae, single point, at 3.1uM to assess reduction in motility. Compounds were also tested for cytotoxicity against Rhesus Monkey LLCMK2 cells.
Assay type: functional, Onchocerca lienalis, LLC-MK2
Conditions: CELL_LINE LLCMK2; CELL_SUPPLIER ECACC; CONC 3.1 uM; ORGANISM_SUPPLIER Extracted from peri-umbilical skin obtained from naturally infected cattle in the UK; temperature 37 degree C

Row | SMILES | MOTILITY REDUCTION/CYTOTOXICITY [%]
1 | CNc1nccc(-c2c(-c3ccc(F)cc3)ncn2CCCN2CCOCC2)n1 | 0
2 | Fc1ccc(-c2ncn(C3CCNCC3)c2-c2ccnc(Oc3ccc(-c4ccccc4)cc3)n2)cc1 | 0
3 | COc1cccc(C2=C(Nc3cccc(O)c3)C(=O)NC2=O)c1 | 13.4
4 | COc1ccc(C2=C(Nc3cccc(O)c3)C(=O)NC2=O)cc1 | 13.4
5 | Cc1nccc(-c2c(-c3ccc(F)cc3)ncn2CCCN2CCOCC2)n1 | 0
6 | O=C(Nc1n[nH]c2cc(-c3cccs3)ccc12)C1CC1 | 0
7 | O=C1NC(=O)C(N2CCc3ccccc32)=C1c1cccc(Cl)c1 | 0
8 | COc1cccc(C2=C(Nc3cccc(Cl)c3)C(=O)NC2=O)c1 | 0
9 | O=C1NC(=O)C(c2ccccc2)=C1Nc1cc(Cl)c(O)c(Cl)c1 | 0
10 | CSc1ccc(NC2=C(c3ccc(Cl)cc3)C(=O)NC2=O)cc1 | 0
11 | CCn1c(-c2ccccn2)nc2cnccc21 | 0
12 | COc1cc2ncn(-c3cc(OCc4ccncc4Br)c(C(N)=O)s3)c2cc1OC | 0
13 | O=C(Nc1n[nH]c2nc(-c3cccs3)c(Br)cc12)C1CCCC1 | 0
14 | CCN1CCN(CCCC(=O)Nc2n[nH]c3nc(-c4ccc(O)cc4)c(Br)cc23)CC1 | 20
15 | Nc1n[nH]c2nnc(-c3ccccc3)cc12 | 0
16 | CN(C)CCOc1ccc(-c2cc(-c3c[nH]nc3-c3ccccn3)ccn2)cc1 | 0
17 | Cc1ccc(NC(=O)c2ccnc(N3CCCCC3)c2)cc1-c1ccc(C(=O)NCC2CC2)cc1 | 0
18 | Cc1ccc(C(=O)NC2CCCC2)cc1-c1ccc(C(=O)NCC2CC2)cc1 | 20
19 | CN(C)CCN(C)C(=O)c1cc(-c2ccncc2)c(-c2ccc(Cl)c(O)c2)o1 | 20
20 | Cc1cccc(-c2nc(Nc3ccc4c(cnn4C)c3)c3ccccc3n2)n1 | 100
21 | Cc1ccc(O)cc1Nc1ccnc2ccc(C(C)(C)C)cc12 | 100
22 | Nc1ncnc2[nH]c(-c3ccccc3)nc12 | 0
23 | Nc1ncnc2c1nc(-c1ccccc1)n2-c1ccccc1 | 0
24 | C=CC(=O)Nc1cc2c(Nc3ccc(F)c(Cl)c3)ncnc2cc1OCCCN1CCOCC1 [CANERTINIB] | 0
25 | CN(C)c1ncnc2nc[nH]c12 [DIMETHYLADENINE] | 0
26 | Cc1ccc(-n2nc(C(C)(C)C)cc2NC(=O)Nc2ccc(OCCN3CCOCC3)c3ccccc23)cc1 [DORAMAPIMOD] | 33.4
27 | CCn1c(-c2nonc2N)nc2ccccc21 [GW549034X] | 0
28 | Nc1ncnc2occ(-c3ccc(NC(=O)Nc4cc(C(F)(F)F)ccc4F)cc3)c12 [GW770249X] | 0
29 | CCN(CC)CCOc1ccc(Nc2ncc3cc(-c4c(Cl)cccc4Cl)c(=O)n(C)c3n2)cc1 [PD-0166285] | 33.4

Same assay, conditions: CELL_LINE LLCMK2; CELL_SUPPLIER ECACC; CONC 3.1 uM; ORGANISM_SUPPLIER Extracted from peri-umbilical skin obtained from naturally infected cattle in the UK; temperature 37 degree C; 3.1 µM

Row | SMILES | MOTILITY REDUCTION/CYTOTOXICITY
30 | CSc1nn2c(=O)cc(N3CCOCC3)nc2n1Cc1cccc(C(F)(F)F)c1C | 16.7% and 0%
